Where a name gives a salt, the structure may show the parent alone. Read-outs that look alike come from different tables or passages of the source. Numbered stars: 1 amine (or outer) side, 2 acyl side, 3 side chain; on linkers, the order of the positions; unused ones are H or OH. Bridge positions count the residues as written; N and C are the ends. Square brackets hold non-standard residues; d marks the D form. Peptide text beside a SMILES is read from it. * marks the point of attachment. ξ: configuration not given here. X25 = CC(O)[C@@H](C(=O)[*:2])N(CCC1(N)CCCCC1)[*:1]; Acetyl(3-pyridyl) = O=C(Cc1cccnc1)*; Hyp = O=C(O)[C@@H]1C[C@@H](O)CN1; X24 = O=C(CCN1CCS(=O)(=O)CC1)*; Thr(3ξ) = CC(O)[C@H](N)C(=O)O; Chg = N[C@H](C(=O)O)C1CCCCC1; 4Abz = Nc1ccc(C(=O)O)cc1; Dab = NCC[C@H](N)C(=O)O; Bz = O=C(c1ccccc1)*
Tests used:
Format in all cases: cell-based
Klebsiella pneumoniae [1] = test: MIC, compound in combination with a second agent (broth microdilution); details: 1:1 (wt:wt) combination with Rifampicin
Description: (§1) To evaluate the potency and spectrum of the compounds both alone and in combination with another agent, susceptibility testing was performed against up to four strains of each of the four Gram negative pathogens, Escherichia coli, Pseudomonas aeruginosa, Klebsiella pneumoniae and Acinetobacter baumannii.
(§2) Ratios of components in a combination, such as 1:1, refers to a weight to weight ratio. The minimum inhibitory concentration (MIC) refers to the total drug concentration (e.g. test compound plus second agent, such as Rifampicin).
(§3) The inoculum was prepared by making a direct suspension of isolated colonies (selected from an 18-24 hour Mueller-Hinton agar plate) adjusted to the 0.5 McFarland standard.
(§4) The assays were performed in duplicate.
(§5) In cases where the duplicate values varied by less than 2-fold, the lower of the two values is reported. If a variation of greater than 2-fold was observed, the assay was considered non-valid. Several of the compounds were subjected to multiple tests, and where this is the case, the MIC reflects the modal value obtained.
(§6) The minimum inhibitory concentration refers to the total drug concentration (e.g. test compound plus Rifampicin). The compounds are used at equal mass within the combination. The weight refers to the mass of compound as used, for example the Example Compounds are used in their TFA or sulphate salt forms.
(§7) MICs refer to the total drug concentration. Thus, where a 1:1 combination is used, this is the amount of the test compound plus the second agent. For comparison, the MIC values for the second agent alone are also given.

Pseudomonas aeruginosa [2] = test: as above; details: 1:1 (wt:wt) combination with Rifampicin
Description: as §1, §2, §3, §4, §5, §6, §7

Klebsiella pneumoniae [3] = test: MIC, sole activity (no second agent); details: Klebsiella pneumoniae
Description: as §1, §3, §4, §5
(§8) MICs were determined as described herein, except that a different supplier of Cation-adjusted MHB was used. […] Values are reported relative to Polymyxin B.

Escherichia coli = test: MIC, sole activity (no second agent); details: Escherichia coli
Description: as §1, §3, §4, §5, §8

Pseudomonas aeruginosa [4] = test: MIC, sole activity (no second agent); details: Pseudomonas aeruginosa
Description: as §1, §3, §4, §5, §8

[5] = MIC = total drug concentration, strain ATCC-BAA-2146
[6] = MIC = total drug concentration, strain CCUG-59348
[7] = MIC = total drug concentration, strain NCTC 13438
[8] = MIC is total drug concentration
[9] = MIC = total drug concentration, strain CCUG 59626
[10] = CCUG59348, read-out: MIC K. pneumoniae CCUG 59348
[11] = NCTC13442, read-out: MIC K. pneumoniae NCTC 13442
[12] = NCTC9001, read-out: MIC E. coli NCTC9001

Compound: CC(C)C[C@@H]1NC(=O)[C@@H](Cc2ccccc2)NC(=O)[C@H](CCN)NC(=O)[C@@H](NC(=O)[C@H](CCN)NC(=O)[C@@H](NC(=O)c2ccc(N)cc2)C(C)O)CCNC(=O)[C@H](C(C)O)NC(=O)[C@H](CCN)NC(=O)[C@H](CCN)NC1=O (some centres unmarked) [Example 5, 4-Aminobenzoyl polymyxin B nonapeptide] (H-[4Abz][Thr(3ξ)][Dab][Dab][Dab][dF]L[Dab][Dab][Thr(3ξ)]; lactam 4-C)
- MIC K. pneumoniae ATCC-BAA-2146 (Klebsiella pneumoniae [1]; [5]): 1 micrograms/mL
- MIC K. pneumoniae CCUG-59348 (Klebsiella pneumoniae [1]; [6]): 2 micrograms/mL
- MIC K. pneumoniae NCTC 13438 (Klebsiella pneumoniae [1]; [7]): 1 micrograms/mL
- MIC K. pneumoniae ATCC-BAA-2146 (Klebsiella pneumoniae [1]; [8]): 1 micrograms/mL
- MIC K. pneumoniae CCUG-59348 (Klebsiella pneumoniae [1]; [8]): 2 micrograms/mL
- MIC K. pneumoniae NCTC 13438 (Klebsiella pneumoniae [1]; [8]): 1 micrograms/mL
- MIC P. aeruginosa CCUG 59626 (Pseudomonas aeruginosa [2]; [9]): 0.25 micrograms/mL
- MIC P. aeruginosa CCUG 59626 (Pseudomonas aeruginosa [2]; [8]): 0.25 micrograms/mL

Compound: CC(C)C[C@@H]1NC(=O)[C@@H](Cc2ccccc2)NC(=O)[C@H](CCN)NC(=O)[C@@H](NC(=O)[C@H](CCN)NC(=O)[C@@H](NC(=O)CCN2CCS(=O)(=O)CC2)C(C)O)CCNC(=O)[C@H](C(C)O)NC(=O)[C@H](CCN)NC(=O)[C@H](CCN)NC1=O (some centres unmarked) [Example 12, 3-(1,1-dioxo-thiomorpholine-4-yl)propanoyl Polymyxin B nonapeptide] (X24-[Thr(3ξ)][Dab][Dab][Dab][dF]L[Dab][Dab][Thr(3ξ)]; lactam 3-C)
- MIC K. pneumoniae ATCC-BAA-2146 (Klebsiella pneumoniae [1]; [5]): 4 micrograms/mL
- MIC K. pneumoniae CCUG-59348 (Klebsiella pneumoniae [1]; [6]): 16 micrograms/mL
- MIC K. pneumoniae NCTC 13438 (Klebsiella pneumoniae [1]; [7]): 4 micrograms/mL
- MIC P. aeruginosa CCUG 59626 (Pseudomonas aeruginosa [2]; [9]): 0.5 micrograms/mL

Compound: CC(C)C[C@@H]1NC(=O)[C@@H](Cc2ccccc2)NC(=O)[C@H](CCN)NC(=O)[C@@H](NC(=O)[C@H](CCN)NC(=O)[C@@H](NC(=O)[C@@H]2C[C@@H](O)CN2)C(C)O)CCNC(=O)[C@H](C(C)O)NC(=O)[C@H](CCN)NC(=O)[C@H](CCN)NC1=O (stereo partly drawn) [Example 35, (2S,4R)-4-Hydroxy-2-pyrrolidine carbonyl polymyxin B nonapeptide, trifluoroacetate salt] (H-[Hyp][Thr(3ξ)][Dab][Dab][Dab][dF]L[Dab][Dab][Thr(3ξ)]; lactam 4-C)
- MIC K. pneumoniae ATCC-BAA-2146 (Klebsiella pneumoniae [1]; [5]): 4 micrograms/mL
- MIC K. pneumoniae CCUG-59348 (Klebsiella pneumoniae [1]; [6]): 16 micrograms/mL
- MIC K. pneumoniae NCTC 13438 (Klebsiella pneumoniae [1]; [7]): 4 micrograms/mL
- MIC P. aeruginosa CCUG 59626 (Pseudomonas aeruginosa [2]; [9]): 0.5 micrograms/mL

Compound: CC(C)C[C@@H]1NC(=O)[C@@H](Cc2ccccc2)NC(=O)[C@H](CCN)NC(=O)[C@@H](NC(=O)[C@H](CCN)NC(=O)[C@@H](NC(=O)[C@@H](N)C2CCCCC2)C(C)O)CCNC(=O)[C@H](C(C)O)NC(=O)[C@H](CCN)NC(=O)[C@H](CCN)NC1=O (stereo partly drawn) [Example 40, 2-(S)-(2-amino-2-cyclohexyl)ethanoyl polymyxin B nonapeptide, trifluoroacetate salt] (H-[Chg][Thr(3ξ)][Dab][Dab][Dab][dF]L[Dab][Dab][Thr(3ξ)]; lactam 4-C)
- MIC K. pneumoniae ATCC-BAA-2146 (Klebsiella pneumoniae [1]; [5]): 2 micrograms/mL
- MIC K. pneumoniae CCUG-59348 (Klebsiella pneumoniae [1]; [6]): 8 micrograms/mL
- MIC P. aeruginosa CCUG 59626 (Pseudomonas aeruginosa [2]; [9]): 0.5 micrograms/mL

Compound: CC(C)C[C@@H]1NC(=O)[C@@H](Cc2ccccc2)NC(=O)[C@H](CCN)NC(=O)[C@@H](NC(=O)[C@H](CCN)NC(=O)[C@@H](NCCC2(N)CCCCC2)C(C)O)CCNC(=O)[C@H](C(C)O)NC(=O)[C@H](CCN)NC(=O)[C@H](CCN)NC1=O (some centres unmarked) [Example 49, N-[2-(1-aminocyclohexyl)ethyl] Polymyxin B nonapeptide] (H-[X25][Dab][Dab][Dab][dF]L[Dab][Dab][Thr(3ξ)]; lactam 3-C)
- MIC K. pneumoniae ATCC-BAA-2146 (Klebsiella pneumoniae [1]; [5]): 2 micrograms/mL
- MIC K. pneumoniae CCUG-59348 (Klebsiella pneumoniae [1]; [6]): 8 micrograms/mL
- MIC P. aeruginosa CCUG 59626 (Pseudomonas aeruginosa [2]; [9]): 0.25 micrograms/mL

Compound: CC(C)C[C@@H]1NC(=O)[C@@H](Cc2ccccc2)NC(=O)[C@H](CCN)NC(=O)[C@@H](NC(=O)[C@H](CCN)NC(=O)[C@@H](NC(=O)c2ccccc2)C(C)O)CCNC(=O)[C@H](C(C)O)NC(=O)[C@H](CCN)NC(=O)[C@H](CCN)NC1=O (some centres unmarked) [Example C3, Benzoyl polymyxin B nonapeptide, sulphate salt, reference compound] (Bz-[Thr(3ξ)][Dab][Dab][Dab][dF]L[Dab][Dab][Thr(3ξ)]; lactam 3-C)
- MIC K. pneumoniae ATCC-BAA-2146 (Klebsiella pneumoniae [1]; [8]): 2 micrograms/mL
- MIC K. pneumoniae CCUG-59348 (Klebsiella pneumoniae [1]; [8]): 8 micrograms/mL
- MIC K. pneumoniae NCTC 13438 (Klebsiella pneumoniae [1]; [8]): 2 micrograms/mL
- MIC P. aeruginosa CCUG 59626 (Pseudomonas aeruginosa [2]; [8]): 1 micrograms/mL

Compound: CC(C)C[C@@H]1NC(=O)[C@@H](Cc2ccccc2)NC(=O)[C@H](CCN)NC(=O)[C@@H](NC(=O)[C@H](CCN)NC(=O)[C@@H](NC(=O)Cc2cccnc2)C(C)O)CCNC(=O)[C@H](C(C)O)NC(=O)[C@H](CCN)NC(=O)[C@H](CCN)NC1=O (some centres unmarked) [Example C5, 3-pyridyl ethanoyl polymyxin B nonapeptide, reference compound] ({Acetyl(3-pyridyl)}-[Thr(3ξ)][Dab][Dab][Dab][dF]L[Dab][Dab][Thr(3ξ)]; lactam 3-C)
- MIC K. pneumoniae ATCC-BAA-2146 (Klebsiella pneumoniae [1]; [8]): 1 micrograms/mL
- MIC K. pneumoniae CCUG-59348 (Klebsiella pneumoniae [1]; [8]): 4 micrograms/mL
- MIC K. pneumoniae NCTC 13438 (Klebsiella pneumoniae [1]; [8]): 2 micrograms/mL
- MIC P. aeruginosa CCUG 59626 (Pseudomonas aeruginosa [2]; [8]): 0.25 micrograms/mL

Compound: CC(=O)O[C@H]1C[C@@]2(C)[C@@H](C[C@@H](O)[C@H]3[C@@]4(C)CC[C@@H](O)[C@@H](C)[C@@H]4CC[C@@]32C)/C1=C(\CCC=C(C)C)C(=O)O [Fusidic acid, reference compound]
- MIC (Klebsiella pneumoniae [3]; Table 7I, K. pneumoniae ATCC4352, second agent none, read-out: MIC K. pneumoniae (ATCC4352)): 16 µg/mL
- MIC (Escherichia coli; Table 7I, E. coli ATCC25922, second agent none, read-out: MIC E. coli (ATCC25922)): > 32 µg/mL

Compound: C[C@@H](O)[C@H]1C(=O)N2C(C(=O)O)=C(S[C@@H]3CN[C@H](C(=O)N(C)C)C3)[C@H](C)[C@H]12 [Meropenem, reference compound]
- MIC (Klebsiella pneumoniae [3]; ATCCBAA1706, K. pneumoniae ATCC BAA-1706, second agent none, read-out: MIC K. pneumoniae ATCC BAA-1706): 16 µg/mL
- MIC (Klebsiella pneumoniae [3]; CCUG59348, K. pneumoniae CCUG 59348, second agent none, read-out: MIC K. pneumoniae CCUG 59348): > 32 µg/mL
- MIC (Klebsiella pneumoniae [3]; NCTC13442, K. pneumoniae NCTC 13442, second agent none, read-out: MIC K. pneumoniae NCTC 13442): 16 µg/mL
- MIC (Pseudomonas aeruginosa [4]; CCUG59626, P. aeruginosa CCUG 59626, second agent none, read-out: MIC P. aeruginosa CCUG 59626): 16 µg/mL
- MIC (Escherichia coli; E. coli NCTC9001, second agent none, read-out: MIC E. coli (NCTC9001)): 0.125 µg/mL

Compound: Cc1onc(-c2ccccc2)c1C(=O)N[C@@H]1C(=O)N2[C@@H]1SC(C)(C)[C@@H]2C(=O)O [Oxacillin, reference compound]
- MIC (Klebsiella pneumoniae [3]; Table 7G, K. pneumoniae ATCC4352, second agent none, read-out: MIC K. pneumoniae (ATCC4352)): 16 µg/mL
- MIC (Escherichia coli; Table 7G, E. coli ATCC25922, second agent none, read-out: MIC E. coli (ATCC25922)): > 32 µg/mL

Compound: CN(C)c1cc(NC(=O)CNC(C)(C)C)c(O)c2c1C[C@H]1C[C@H]3[C@H](N(C)C)C(O)=C(C(N)=O)C(=O)[C@@]3(O)C(O)=C1C2=O [Tigecycline, reference compound]
- MIC (Klebsiella pneumoniae [3]; [10]): 2 µg/mL
- MIC (Klebsiella pneumoniae [3]; [11]): 2 µg/mL
- MIC (Pseudomonas aeruginosa [4]; CCUG59626, read-out: MIC P. aeruginosa CCUG 59626): 16 µg/mL
- MIC (Escherichia coli; [12]): 0.125 µg/mL

Compound: CN[C@H](CC(C)C)C(=O)N[C@H]1C(=O)N[C@@H](CC(N)=O)C(=O)N[C@H]2C(=O)N[C@H]3C(=O)N[C@H](C(=O)N[C@H](C(=O)O)c4cc(O)cc(O)c4-c4cc3ccc4O)[C@H](O)c3ccc(c(Cl)c3)Oc3cc2cc(c3O[C@@H]2O[C@H](CO)[C@@H](O)[C@H](O)[C@H]2O[C@H]2C[C@](C)(N)[C@H](O)[C@H](C)O2)Oc2ccc(cc2Cl)[C@H]1O [Vancomycin, reference compound]
- MIC (Klebsiella pneumoniae [3]; [10]): > 32 µg/mL
- MIC (Klebsiella pneumoniae [3]; CCUG59626, read-out: MIC K. pneumoniae CCUG 59626): > 32 µg/mL
- MIC (Klebsiella pneumoniae [3]; [11]): > 32 µg/mL
- MIC (Escherichia coli; [12]): > 32 µg/mL

— US10407467B2, “Polymyxin derivatives and their use in combination therapy together with different antibiotics” (priority 2013, dated 2019)
